Test results as given in PMC6751662, “Pharmacological and functional similarities of the human neuropeptide Y system in C. elegans challenges phylogenetic views on the FLP/NPR system” (Cell Communication and Signaling : CCS, 2019).

What was measured:
Assay type in all cases: cell-based
NPFF2R = target: T1, NPFF2R (Homo sapiens, UniProt Q9Y5X5); test: IP accumulation assay, chimeric GαΔ6qi4myr, NPFF2R; conditions: chimeric GαΔ6qi4myr co-transfected, transiently transfected HEK293 cells, mean of at least three independent experiments
T1 construct: expressed in transfected cells; host or cells: HEK293, transient
T1 sequence (Q9Y5X5 103-522): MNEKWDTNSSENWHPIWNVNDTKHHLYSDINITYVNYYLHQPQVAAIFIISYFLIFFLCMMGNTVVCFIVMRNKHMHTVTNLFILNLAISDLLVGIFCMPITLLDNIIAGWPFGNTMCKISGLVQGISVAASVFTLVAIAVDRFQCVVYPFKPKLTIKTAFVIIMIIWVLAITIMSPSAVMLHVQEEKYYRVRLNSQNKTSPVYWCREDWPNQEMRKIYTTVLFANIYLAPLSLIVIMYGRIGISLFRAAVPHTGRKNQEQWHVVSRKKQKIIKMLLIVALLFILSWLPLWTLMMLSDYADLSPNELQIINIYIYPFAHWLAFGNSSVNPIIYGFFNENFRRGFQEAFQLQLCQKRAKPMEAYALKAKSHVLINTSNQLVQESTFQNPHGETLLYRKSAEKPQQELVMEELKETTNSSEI
Method: (§1) For measuring IP accumulation, HEK293 cells grown to 70–80% confluency in 6-well plates were transiently co-transfected using Metafectene Pro (2.5 μl/μg DNA; Biontex) with plasmids containing receptor and/or mock (empty pcDNA3.1) (for endogenous Gq-coupling) using 4 μg total DNA in a ratio of 3:1 following the manufacturer’s instructions. For testing Gα16- and GαΔ6qi4myr-coupling, plasmids encoding the corresponding Gα protein were co-transfected instead of mock. Gα16 is naturally promiscuous and stimulates the phospholipase C (PLC) pathway leading to IP production, while the exchange of the C-terminal four amino acids of Gαq for the corresponding residues of Gαi1 in the chimeric GαΔ6qi4myr confers the ability to couple to Gi/o protein-preferring receptors but still stimulate PLC, thus specifically redirecting downstream cellular signaling. 16 h post transfection, the cells were seeded into white 384-well plates at a density of 20,000 cells/well. Media was removed 24 h later and the cells were incubated with the indicated concentration of peptides for 1 h in HBSS + 20 mM LiCl. IP accumulation was measured with the HTRF-based IP-One Gq kit (Cisbio) on a microplate reader (Tecan Spark).
(§2) For in vitro activation, data is presented as mean ± SEM of at least three independent experiments conducted in technical triplicate. […] For the C. elegans NPRs, we considered the strongest response elicited by any of the peptides downstream of a particular receptor as the receptor’s maximal signal. This may or may not be the biological maximum that can be reached by the ‘true’ endogenous agonist. For the human receptors, the response to the established endogenous agonist reflected the maximal signal.

QRFPR = target: T2, QRFPR (Homo sapiens, UniProt Q96P65); test: IP accumulation assay, endogenous Gαq coupling, QRFPR; conditions: transiently transfected HEK293 cells, mean of at least three independent experiments
T2 construct: expressed in transfected cells; host or cells: HEK293, transient
T2 sequence (Q96P65 1-431): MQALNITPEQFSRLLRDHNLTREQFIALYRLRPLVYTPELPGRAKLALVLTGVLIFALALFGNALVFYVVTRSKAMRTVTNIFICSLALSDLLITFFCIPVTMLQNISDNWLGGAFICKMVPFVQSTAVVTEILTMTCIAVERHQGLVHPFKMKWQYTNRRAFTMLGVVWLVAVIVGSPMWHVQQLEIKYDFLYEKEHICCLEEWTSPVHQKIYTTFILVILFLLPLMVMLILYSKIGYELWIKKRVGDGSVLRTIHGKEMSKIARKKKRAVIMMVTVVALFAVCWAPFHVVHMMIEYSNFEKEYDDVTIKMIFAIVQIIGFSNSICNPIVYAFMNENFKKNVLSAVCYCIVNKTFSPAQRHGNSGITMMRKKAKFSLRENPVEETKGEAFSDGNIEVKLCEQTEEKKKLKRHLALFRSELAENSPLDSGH
Method: as §1, §2

Y4R = target: T3, Y4R (Homo sapiens, UniProt P50391); test: IP accumulation assay, chimeric GαΔ6qi4myr, Y4R; conditions: chimeric GαΔ6qi4myr co-transfected, transiently transfected HEK293 cells, mean of at least three independent experiments
T3 construct: expressed in transfected cells; host or cells: HEK293, transient
T3 sequence (P50391 whole entry): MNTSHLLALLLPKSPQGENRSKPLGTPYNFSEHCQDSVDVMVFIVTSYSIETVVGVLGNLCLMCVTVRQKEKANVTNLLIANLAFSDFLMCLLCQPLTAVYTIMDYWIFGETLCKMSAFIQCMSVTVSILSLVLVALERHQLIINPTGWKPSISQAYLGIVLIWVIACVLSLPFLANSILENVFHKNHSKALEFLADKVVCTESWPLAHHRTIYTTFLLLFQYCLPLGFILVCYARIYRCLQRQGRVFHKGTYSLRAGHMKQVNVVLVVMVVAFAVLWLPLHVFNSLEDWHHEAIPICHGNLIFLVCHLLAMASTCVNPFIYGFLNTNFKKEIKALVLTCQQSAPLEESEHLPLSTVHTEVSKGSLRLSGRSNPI
Method: as §1, §2

Y2R = target: T4, Y2R (Homo sapiens, UniProt P49146); test: IP accumulation assay, chimeric GαΔ6qi4myr, Y2R; conditions: chimeric GαΔ6qi4myr co-transfected, transiently transfected HEK293 cells, mean of at least three independent experiments
T4 construct: expressed in transfected cells; host or cells: HEK293, transient
T4 sequence (P49146 1-381): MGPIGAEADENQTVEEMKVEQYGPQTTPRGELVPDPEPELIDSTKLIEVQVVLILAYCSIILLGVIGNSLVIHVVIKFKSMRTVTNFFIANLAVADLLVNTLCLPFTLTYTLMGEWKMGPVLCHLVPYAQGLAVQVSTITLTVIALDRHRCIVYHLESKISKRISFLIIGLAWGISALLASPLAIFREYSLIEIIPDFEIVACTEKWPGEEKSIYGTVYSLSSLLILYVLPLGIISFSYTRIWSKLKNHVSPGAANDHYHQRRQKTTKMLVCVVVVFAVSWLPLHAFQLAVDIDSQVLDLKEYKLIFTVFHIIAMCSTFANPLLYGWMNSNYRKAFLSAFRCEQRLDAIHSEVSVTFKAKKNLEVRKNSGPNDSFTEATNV
Method: as §1, §2

Y5R = target: T5, Y5R (Homo sapiens, UniProt Q15761); test: IP accumulation assay, chimeric GαΔ6qi4myr, Y5R; conditions: chimeric GαΔ6qi4myr co-transfected, transiently transfected HEK293 cells, mean of at least three independent experiments
T5 construct: expressed in transfected cells; host or cells: HEK293, transient
T5 sequence (Q15761 1-445): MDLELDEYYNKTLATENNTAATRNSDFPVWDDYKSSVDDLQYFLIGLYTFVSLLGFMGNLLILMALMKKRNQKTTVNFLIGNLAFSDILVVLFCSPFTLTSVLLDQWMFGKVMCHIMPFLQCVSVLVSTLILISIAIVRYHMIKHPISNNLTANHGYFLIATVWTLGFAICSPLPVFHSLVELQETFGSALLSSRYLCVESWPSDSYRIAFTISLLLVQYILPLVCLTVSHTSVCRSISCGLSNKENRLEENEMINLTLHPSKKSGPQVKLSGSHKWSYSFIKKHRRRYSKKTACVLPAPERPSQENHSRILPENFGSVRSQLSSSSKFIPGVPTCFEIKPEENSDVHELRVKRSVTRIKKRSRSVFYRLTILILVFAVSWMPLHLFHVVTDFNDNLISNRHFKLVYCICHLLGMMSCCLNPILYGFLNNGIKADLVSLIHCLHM
Method: as §1, §2

Y1R = target: T6, Y1R (Homo sapiens, UniProt P25929); test: IP accumulation assay, chimeric GαΔ6qi4myr, Y1R; conditions: chimeric GαΔ6qi4myr co-transfected, transiently transfected HEK293 cells, mean of at least three independent experiments
T6 construct: expressed in transfected cells; host or cells: HEK293, transient
T6 sequence (P25929 1-384): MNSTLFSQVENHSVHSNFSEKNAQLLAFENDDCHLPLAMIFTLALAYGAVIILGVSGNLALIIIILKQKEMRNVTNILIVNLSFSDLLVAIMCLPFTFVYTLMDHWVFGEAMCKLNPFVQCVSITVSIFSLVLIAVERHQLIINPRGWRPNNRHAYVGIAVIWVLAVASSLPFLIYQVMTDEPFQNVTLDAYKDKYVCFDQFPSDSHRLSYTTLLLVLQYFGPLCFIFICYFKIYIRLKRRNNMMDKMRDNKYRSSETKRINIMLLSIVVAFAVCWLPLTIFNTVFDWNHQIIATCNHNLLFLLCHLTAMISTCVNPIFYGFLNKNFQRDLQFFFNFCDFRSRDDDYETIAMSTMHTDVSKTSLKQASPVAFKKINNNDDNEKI
Method: as §1, §2

NPFF1R = target: T7, NPFF1R (Homo sapiens, UniProt Q9GZQ6); test: IP accumulation assay, chimeric GαΔ6qi4myr, NPFF1R; conditions: chimeric GαΔ6qi4myr co-transfected, transiently transfected HEK293 cells, mean of at least three independent experiments
T7 construct: expressed in transfected cells; host or cells: HEK293, transient
T7 sequence (Q9GZQ6 whole entry): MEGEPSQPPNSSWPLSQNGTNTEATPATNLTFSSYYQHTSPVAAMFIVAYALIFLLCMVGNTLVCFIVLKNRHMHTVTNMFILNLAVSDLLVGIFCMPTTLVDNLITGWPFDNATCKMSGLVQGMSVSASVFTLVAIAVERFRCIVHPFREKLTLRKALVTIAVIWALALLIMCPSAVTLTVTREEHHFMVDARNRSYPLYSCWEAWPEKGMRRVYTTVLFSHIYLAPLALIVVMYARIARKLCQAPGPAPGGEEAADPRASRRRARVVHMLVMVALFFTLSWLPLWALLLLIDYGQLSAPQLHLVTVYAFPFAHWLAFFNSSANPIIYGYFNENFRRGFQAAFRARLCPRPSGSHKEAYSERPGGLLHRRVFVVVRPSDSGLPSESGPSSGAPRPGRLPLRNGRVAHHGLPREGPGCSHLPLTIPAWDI
Method: as §1, §2

| Substance | IP accumulation, x-fold of basal (mean), NPFF2R (NPFF2R; 0.1 µM peptide) | IP accumulation, x-fold of basal (mean), NPFF2R (NPFF2R; 10 µM peptide) | IP accumulation, x-fold of basal (mean), QRFPR# (QRFPR; 0.1 µM peptide) | IP accumulation, x-fold of basal (mean), QRFPR# (QRFPR; 10 µM peptide) | IP accumulation, x-fold of basal (mean), Y4R (Y4R; 0.1 µM peptide) | IP accumulation, x-fold of basal (mean), Y4R (Y4R; 10 µM peptide) | IP accumulation, x-fold of basal (mean), Y2R (Y2R; 0.1 µM peptide) | IP accumulation, x-fold of basal (mean), Y2R (Y2R; 10 µM peptide) | IP accumulation, x-fold of basal (mean), Y5R (Y5R; 0.1 µM peptide) | IP accumulation, x-fold of basal (mean), Y5R (Y5R; 10 µM peptide) | IP accumulation, x-fold of basal (mean), Y1R (Y1R; 0.1 µM peptide) | IP accumulation, x-fold of basal (mean), Y1R (Y1R; 10 µM peptide) | IP accumulation, x-fold of basal (mean), NPFF1R (NPFF1R; 0.1 µM peptide) | IP accumulation, x-fold of basal (mean), NPFF1R (NPFF1R; 10 µM peptide) |
| --- | --- | --- | --- | --- | --- | --- | --- | --- | --- | --- | --- | --- | --- | --- |
| ASPSFIRF-NH2 [FLP-4-2, C. elegans FMRFamide-like peptide, C-terminally amidated, synthesized by SPPS] | 1.07 x-fold of basal | 2.36 x-fold of basal | 1.26 x-fold of basal | 0.98 x-fold of basal | 1.45 x-fold of basal | 1.04 x-fold of basal | 0.76 x-fold of basal | 2.05 x-fold of basal | 1.14 x-fold of basal | 1.29 x-fold of basal | 2.37 x-fold of basal | 1.93 x-fold of basal | 1.86 x-fold of basal | 3.68 x-fold of basal |
| APKPKFIRF-NH2 [FLP-5-1, C. elegans FMRFamide-like peptide, C-terminally amidated, synthesized by SPPS] | 0.88 x-fold of basal | 2.44 x-fold of basal | 0.95 x-fold of basal | 1.21 x-fold of basal | 1.38 x-fold of basal | 1.28 x-fold of basal | 0.88 x-fold of basal | 4.08 x-fold of basal | 0.80 x-fold of basal | 5.88 x-fold of basal | 1.02 x-fold of basal | 1.69 x-fold of basal | 1.48 x-fold of basal | 4.07 x-fold of basal |
| TSGPLGNLAEELNGYSRKKGGFSFRF-NH2 [QRFP26, human pyroglutamylated RFamide peptide, 26 residues, reference compound] | 1.85 x-fold of basal | 2.58 x-fold of basal | 22.77 x-fold of basal | 24.26 x-fold of basal | 1.03 x-fold of basal | 1.42 x-fold of basal | 1.30 x-fold of basal | 10.62 x-fold of basal | 0.87 x-fold of basal | 3.57 x-fold of basal | 1.32 x-fold of basal | 2.75 x-fold of basal | 1.04 x-fold of basal | 2.56 x-fold of basal |
| APLEPVYPGDNATPEQMAQYAADLRRYINMLTRPRY-NH2 [PP, human pancreatic polypeptide, reference compound] | 0.95 x-fold of basal | 1.44 x-fold of basal | 0.75 x-fold of basal | 0.75 x-fold of basal | 4.73 x-fold of basal | 4.61 x-fold of basal | 3.40 x-fold of basal | 12.24 x-fold of basal | 16.39 x-fold of basal | 17.90 x-fold of basal | 17.01 x-fold of basal | 25.89 x-fold of basal | 0.75 x-fold of basal | 0.75 x-fold of basal |
| EASAFGDIIGELKGKGLGGRMRF-NH2 [FLP-27, NPY-like C. elegans FLP with C-terminal RxRF/Ya signature] |  |  | 0.87 x-fold of basal | 0.95 x-fold of basal |  |  |  |  |  |  |  |  |  |  |
| APLEGFEDMSGFLRTIDGIQKPRF-NH2 [FLP-33, NPY-like C. elegans FLP with C-terminal RxRF/Ya signature] |  |  | 0.91 x-fold of basal | 0.80 x-fold of basal |  |  |  |  |  |  |  |  |  |  |
